Structures can show the parent of a compound that is named as a salt.

The text below walks through data of US10774074B2, “2-(1-heteroarylpiperazin-4-yl)methyl-1,4-benzodioxane derivatives as alpha2C antagonists” (ORION CORPORATION, priority 2015, dated 2020).

In one test the target is T1, human alpha2A receptors (Homo sapiens, UniProt P08913).
T1 construct: host or cells: CHO cells, cotransfected with pCEP-Gα16
T1 sequence (P08913 1-465): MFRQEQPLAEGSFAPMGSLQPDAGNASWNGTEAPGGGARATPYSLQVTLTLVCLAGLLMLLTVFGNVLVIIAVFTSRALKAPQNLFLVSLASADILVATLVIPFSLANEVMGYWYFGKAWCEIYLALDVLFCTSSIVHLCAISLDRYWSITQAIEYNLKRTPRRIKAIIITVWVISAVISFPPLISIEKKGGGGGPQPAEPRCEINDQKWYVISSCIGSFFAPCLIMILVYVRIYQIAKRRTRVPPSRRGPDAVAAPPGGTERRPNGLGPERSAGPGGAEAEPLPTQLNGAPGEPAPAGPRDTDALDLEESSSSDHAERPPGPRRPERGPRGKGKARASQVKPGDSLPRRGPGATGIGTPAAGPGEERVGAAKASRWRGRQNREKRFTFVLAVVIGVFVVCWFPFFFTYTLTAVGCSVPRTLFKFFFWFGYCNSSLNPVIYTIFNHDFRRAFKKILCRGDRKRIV
The test can be described thus: Determination of alpha2A antagonistic activity in vitro (FLIPR calcium assay, CHO cells). Type of test: cell-based. The note with it: for Kb: Kb calculated with the Cheng-Prusoff equation from IC50, adrenaline as agonist, CHO cells, human alpha2A, read-out: Alpha 2A Adrenaline Kb; for IC50: antagonism of adrenaline stimulation, CHO cells stably transfected with human alpha2A receptor and Gα16, intracellular calcium (FLIPR), read-out: Alpha 2A Adrenaline IC50. The method, then: (§1) EXPERIMENT 1: Determination of alpha2A and alpha2C Antagonistic Activity In Vitro
(§2) Chinese hamster ovary (CHO) cells stably transfected with human alpha2A or alpha2C receptors (University of Turku, Finland) were cotransfected with the expression vector pCEP-Gα16 (Molecular Devices, CA, USA) were used in this experiment. The cells were maintained at 37° C. in a 5% CO2/95% air atmosphere. The cells were cultured in HAM F-12 medium supplemented with 10% FCS, 25 mM HEPES, 100 IU/ml penicillin, 100 µg/ml streptomycin, 500 μg/ml geneticin and 240 μg/ml hygromycin B. The cells were subcultured twice weekly with 0.25% trypsin and 1 mM EDTA. The subculture ratio was 1:5-1:20. The growth medium was changed every 2 or 3 days. All cell culture reagents were from Gibco. The day before the experiment the cells were plated into black-walled, clear bottom 384-well plates at a density of 10,000 cells/well.
(§3) The growth medium was removed and the cells were incubated with the test compounds and the FLIPR Calcium 6 Assay reagent (Molecular Devices, CA, USA) for 2 h at 37° C. in dark. The test compounds (concentrations in cells 100 pM-10 μM) were dissolved in Probenecid-Ringer consisting of 150 mM NaCl, 3 mM KCl, 1.2 mM MgCl2, 1 mM CaCl2, 5 mM glucose, 20 mM HEPES and 2.5 mM probenecid (pH 7.4 adjusted with 1.0 M NaOH). The osmolarity was adjusted to 322 milliosmoles with Osmostat® OM-6020 osmometer (DIC Kyoto Daiichi Kagagu Co. Ltd, Japan). […] All experiments were performed at 37° C. For agonism measurements the test compounds dissolved in Probenecid-Ringer were applied by FLIPR Tetra at 15 s time point. In order to determine antagonism, the cells were stimulated either with 100 nM adrenaline or noradrenaline and the test compounds were added to the cells 2 h before the experiment with the FLIPR Calcium 6 Assay reagent. […] Typically, there were four replicates at each concentration and six different dose levels. For example, if the number of plates from which results were obtained was three, 72 (4*6*3) wells were thus measured to construct dose-response relationship. The samples were excited at 485 nm and emission was detected at 525 nm with a 515 nm cut-off filter. The minimum fluorescence value subtracted from the maximum value for each well was used in the calculations. ScreenWorks version 4.0 software was used for analyzing the results. Fitting of the antagonist dose-response results was performed with the free Hill equation and the IC50 values were fitted with IDBS XE software using model 200: y=(A+(B/(1+((x/C)^D)))), where A is the curve maximum, B the curve minimum and C equals the EC50 value. D is slope factor (Hill). Kb was calculated with the Cheng-Prusoff equation Kb=A/((B/C)+1), where A is the IC50 of antagonist, B the concentration of agonist and C the EC50 of the agonist.

For another test, the target named is T2, human alpha2C receptors (Homo sapiens, UniProt P18825).
T2 construct: host or cells: CHO cells, cotransfected with pCEP-Gα16
T2 sequence (P18825 1-462): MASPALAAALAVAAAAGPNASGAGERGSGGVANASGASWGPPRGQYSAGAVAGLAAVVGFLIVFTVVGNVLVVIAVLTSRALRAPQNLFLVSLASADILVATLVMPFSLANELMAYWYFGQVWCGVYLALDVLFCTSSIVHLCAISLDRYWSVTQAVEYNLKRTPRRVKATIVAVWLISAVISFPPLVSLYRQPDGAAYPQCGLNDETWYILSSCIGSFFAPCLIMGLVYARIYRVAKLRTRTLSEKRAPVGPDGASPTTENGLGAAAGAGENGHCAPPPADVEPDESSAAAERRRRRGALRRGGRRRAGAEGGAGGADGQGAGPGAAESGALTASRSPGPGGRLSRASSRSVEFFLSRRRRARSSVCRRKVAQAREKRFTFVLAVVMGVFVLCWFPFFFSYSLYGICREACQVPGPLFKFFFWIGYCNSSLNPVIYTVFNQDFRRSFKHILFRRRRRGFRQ
The test can be described thus: Determination of alpha2C antagonistic activity in vitro (FLIPR calcium assay, CHO cells). The note with it: for Kb: Kb calculated with the Cheng-Prusoff equation from IC50, adrenaline as agonist, CHO cells, human alpha2C, read-out: Alpha 2C Adrenaline Kb; for IC50: antagonism of adrenaline stimulation, CHO cells stably transfected with human alpha2C receptor and Gα16, intracellular calcium (FLIPR), read-out: Alpha 2C Adrenaline IC50. Type of test: cell-based. The procedure: as §1, §2, §3

One may read the Kb as the equilibrium dissociation constant of an antagonist, usually derived from a functional assay. One may read the IC50 as the concentration that inhibits the measured activity by half. For `O=C1CCCN1c1nsnc1N1CCN(C[C@H]2COc3ccccc3O2)CC1` [Compound of example 24, (S)-1-(4-(4-((2,3-Dihydrobenzo[b][1,4]dioxin-2-yl)methyl)piperazin-1-yl)-1,2,5-thiadiazol-3-yl)pyrrolidin-2-one], on human alpha2A receptors, the Kb was 385 nM and the IC50 came to 8570 nM. Further, at human alpha2C receptors, the Kb is 0.546 nM and the IC50 turned out to be 0.055 nM.
The corresponding values for `CC1(C)CCN(c2nsnc2N2CCN(C[C@H]3COc4ccccc4O3)CC2)C1=O` [Compound of example 17, (S)-1-(4-(4-((2,3-Dihydrobenzo[b][1,4]dioxin-2-yl)methyl)piperazin-1-yl)-1,2,5-thiadiazol-3-yl)-3,3-dimethylpyrrolidin-2-one] are greater than 449 nM, greater than 10000 nM, less than 0.1 nM and less than 0.01 nM.
For `Cc1c(N2C(=O)c3ccccc3C2=O)c(N2CCN(C[C@H]3COc4ccccc4O3)CC2)nn1C` [Compound of example 2, (S)-2-(3-(4-((2,3-Dihydrobenzo[b][1,4]dioxin-2-yl)methyl)piperazin-1-yl)-1,5-dimethyl-1H-pyrazol-4-yl)isoindoline-1,3-dione], in that order: less than 0.004 nM, less than 0.1 nM, less than 0.1 nM and less than 0.01 nM.
Turning to `c1cnc(Nc2nsnc2N2CCN(C[C@H]3COc4ccccc4O3)CC2)nc1` [Compound of example 18, (S)-4-(4-((2,3-Dihydrobenzo[b][1,4]dioxin-2-yl)methyl)piperazin-1-yl)-N-(pyrimidin-2-yl)-1,2,5-thiadiazol-3-amine], on human alpha2A receptors, the Kb is 233 nM and the IC50 amounted to 5190 nM. Also, on human alpha2C receptors, the Kb was 30.1 nM and the IC50 was determined as 3.03 nM.
For `Cc1cc(N2CCN(C[C@H]3COc4ccccc4O3)CC2)n(-c2ccccn2)n1` [Compound of example 38, (S)-1-((2,3-Dihydrobenzo[b][1,4]dioxin-2-yl)methyl)-4-(3-methyl-1-(pyridin-2-yl)-1H-pyrazol-5-yl)piperazine], in that order: 149 nM, 3320 nM, 2.28 nM and 0.23 nM.
The corresponding values for `COCc1nc(N2CCN(C[C@H]3COc4ccccc4O3)CC2)no1` [Compound of example 23, (S)-3-(4-((2,3-Dihydrobenzo[b][1,4]dioxin-2-yl)methyl)piperazin-1-yl)-5-(methoxymethyl)-1,2,4-oxadiazole] are greater than 449 nM, greater than 10000 nM, 1350 nM and 136 nM.
For `Cc1nsc(N2CCN(C[C@H]3COc4ccccc4O3)CC2)c1N1CCCC1=O` [Compound of example 31, (S)-1-(5-(4-((2,3-Dihydrobenzo[b][1,4]dioxin-2-yl)methyl)piperazin-1-yl)-3-methylisothiazol-4-yl)pyrrolidin-2-one], in that order: greater than 449 nM, greater than 10000 nM, 1.66 nM and 0.17 nM.
As to `c1ccc2c(c1)OC[C@H](CN1CCN(c3nncs3)CC1)O2` [Compound of example 22, (S)-2-(4-((2,3-Dihydrobenzo[b][1,4]dioxin-2-yl)methyl)piperazin-1-yl)-1,3,4-thiadiazole], the Kb on human alpha2A receptors is greater than 449 nM; at human alpha2C receptors, 1570 nM. In addition, the IC50 on human alpha2A receptors is greater than 10000 nM; on human alpha2C receptors it was 158 nM.
`CNC(=O)c1nsnc1N1CCN(C[C@H]2COc3ccccc3O2)CC1` [Compound of example 29, (S)-4-(4-((2,3-Dihydrobenzo[b][1,4]dioxin-2-yl)methyl)piperazin-1-yl)-N-methyl-1,2,5-thiadiazole-3-carboxamide hydrochloride]: at human alpha2A receptors, the Kb is greater than 449 nM and the IC50 is greater than 10000 nM. Also, on human alpha2C receptors, the Kb was 4210 nM and the IC50 was 424 nM.
The corresponding values for `O=C1OCCN1c1nsnc1N1CCN(C[C@H]2COc3ccccc3O2)CC1` [Compound of example 26, (S)-3-(4-(4-((2,3-Dihydrobenzo[b][1,4]dioxin-2-yl)methyl)piperazin-1-yl)-1,2,5-thiadiazol-3-yl)oxazolidin-2-one] are greater than 449 nM, greater than 10000 nM, 183 nM and 18.5 nM.
